Data set [1] is described as follows: Stability in human liver microsomes assessed as compound remaining measured after 30 mins. The data set is classed as ADME, Microsome. The note with it: read-out: Stability.
Data set [2] can be described thus: Stability in mouse liver microsomes assessed as compound remaining measured after 30 mins. The data set is classed as ADME, Microsome. The note with it: read-out: Stability. In general terms: Microsomes from liver hold many membrane-bound enzymes, among them those of drug oxidation.
In data set [3] the target is T1, Tryptophan 5-hydroxylase 1 (Homo sapiens) (UniProt P17752).
T1 sequence (whole entry): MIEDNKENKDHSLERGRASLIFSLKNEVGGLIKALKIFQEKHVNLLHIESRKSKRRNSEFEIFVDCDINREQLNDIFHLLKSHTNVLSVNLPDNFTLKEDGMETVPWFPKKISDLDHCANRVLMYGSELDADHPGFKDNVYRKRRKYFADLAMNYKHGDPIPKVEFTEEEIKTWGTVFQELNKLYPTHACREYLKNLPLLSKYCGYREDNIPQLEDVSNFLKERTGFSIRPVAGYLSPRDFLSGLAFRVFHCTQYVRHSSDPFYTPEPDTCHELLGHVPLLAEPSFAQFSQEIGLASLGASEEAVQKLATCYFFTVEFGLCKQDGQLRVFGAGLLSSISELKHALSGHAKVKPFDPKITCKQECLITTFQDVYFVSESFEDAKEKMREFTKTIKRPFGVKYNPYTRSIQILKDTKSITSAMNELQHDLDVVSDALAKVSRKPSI
Nature of the data set: Inhibition of TPH1 ( unknown origin ) at 1 uM relative to control.

Data set [4] deals with T2, Tryptophan 5-hydroxylase 1 (Homo sapiens, UniProt P17752).
T2 sequence (P17752 whole entry): T1 sequence (whole entry)
The experiment in a line: Inhibition of TPH1 ( unknown origin ).

Data set [5] deals with T3, Tryptophan 5-hydroxylase 1 (Mus musculus) (UniProt P17532).
T3 sequence (whole entry): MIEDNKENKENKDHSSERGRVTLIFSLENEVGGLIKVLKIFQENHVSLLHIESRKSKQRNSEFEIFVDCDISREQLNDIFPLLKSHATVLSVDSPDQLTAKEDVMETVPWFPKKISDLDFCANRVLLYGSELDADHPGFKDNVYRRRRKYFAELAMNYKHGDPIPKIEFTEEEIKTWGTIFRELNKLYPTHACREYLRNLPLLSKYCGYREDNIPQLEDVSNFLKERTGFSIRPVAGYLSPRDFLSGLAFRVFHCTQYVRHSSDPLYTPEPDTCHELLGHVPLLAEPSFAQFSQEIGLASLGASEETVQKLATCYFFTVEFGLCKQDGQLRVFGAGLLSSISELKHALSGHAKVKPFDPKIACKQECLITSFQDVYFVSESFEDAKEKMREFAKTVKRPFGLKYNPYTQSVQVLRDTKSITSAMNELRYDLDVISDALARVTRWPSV
The experiment in a line: Inhibition of TPH1 in mouse 3T3-L1 cells assessed as suppression of insulin-induced adipocyte differentiation by measuring reduction in lipid droplet accumulation at 1 to 2 uM measured on day 7 post-adipogenesis induction by oil red O staining based phase-contrast light microscopy. The class given is cell-based. Particulars: dose 1-2 µM, time 7.0 day.

In data set [6] the target is T3, Tryptophan 5-hydroxylase 1 (Mus musculus). The experiment in a line: Inhibition of TPH1 in mouse 3T3-L1 cells assessed as suppression of insulin-induced adipocyte differentiation by measuring reduction in lipid droplet accumulation at 1 to 2 uM measured on day 7 post-adipogenesis induction by oil red O staining based spectrophotometry. The class given is cell-based. Particulars: dose 1-2 µM, time 7.0 day.

Each structure is given as a SMILES string. Calls of active or inactive are those of the source. The calls are words filed in the database; no cut-off is given here.

This note sets out measurements from ChEMBL document CHEMBL5365453, “Synthesis and biological evaluation of xanthine derivatives with phenacyl group as tryptophan hydroxylase 1 (TPH1) inhibitors for obesity and fatty liver disease” (Bioorg Med Chem Lett, 2023).

One may read the inhibition as the change of the read-out against control, counted positive when it falls. As a reminder, the IC50 is the concentration that inhibits the measured activity by half. Low readings indicate higher potency, high ones lower potency.

Consider `CCn1c(=O)[nH]c(=O)c2c1nc(Cc1cn3ccsc3n1)n2CC(=O)c1ccc(O)cc1`, for which the remaining at 0.5 h was determined as 80.4% in data set [1] and 77.3% in data set [2]. The compound also gave an inhibition in data set [3] of 94.3%. The same compound registered an IC50 in data set [4] of 110 nM. The inhibition result in data set [5] and in data set [6] was “Active” throughout. In data set [3], `CCn1c(=O)n(Cc2ccccc2)c(=O)c2c1nc(Cc1cn3ccsc3n1)n2Cc1ccccc1` came in with an inhibition of 6.2%. In turn, `CCn1c(=O)[nH]c(=O)c2c1nc(Cc1cn3ccsc3n1)n2C/C(=N/O)c1ccc(OC)cc1` showed an inhibition in data set [3] of 25.5%. Regarding `CCn1c(=O)[nH]c(=O)c2c1nc(Cc1cn3ccsc3n1)n2CC(=O)c1ccc(-c2ccccc2)cc1`, in data set [3], the inhibition amounted to 32.6%. As for `CCn1c(=O)[nH]c(=O)c2c1nc(Cc1cn3ccsc3n1)n2CC(=O)c1ccccc1OC`, the inhibition in data set [3] turned out to be 0.3%.

For the compound `CCn1c(=O)[nH]c(=O)c2[nH]c(Cc3cn4ccsc4n3)nc21`, the inhibition in data set [3] amounted to 10.2%. Take `CCn1c(=O)[nH]c(=O)c2c1nc(Cc1cn3ccsc3n1)n2CC(=O)c1ccc(N)cc1`: the remaining at 0.5 h in data set [1] is 95.3%; in data set [2], 80.8%. In data set [3], this compound gave an inhibition of 87.8%. Besides, 168 nM corresponded to half-maximal inhibition in data set [4] (IC50).

With `CCn1c(=O)[nH]c(=O)c2c1nc(C)n2Cc1ccccc1`, in data set [3], the inhibition came to 0%. `CCn1c(=O)[nH]c(=O)c2c1nc(Cc1cn3ccsc3n1)n2CC(=O)c1ccc(C(F)(F)F)cc1` had an inhibition in data set [3] of 47.5%. The compound `CCn1c(=O)[nH]c(=O)c2c1nc(Cc1cn3ccsc3n1)n2CC(O)c1ccc(Cl)cc1` (centres undefined) came in with an inhibition in data set [3] of 0%. Compound `CCn1c(=O)[nH]c(=O)c2c1nc(Cn1cnc3ccccc31)n2Cc1ccccc1` displayed an inhibition in data set [3] of 0%.

Regarding `CCn1c(=O)[nH]c(=O)c2c1nc(Cc1cn3ccsc3n1)n2CC(=O)c1ccc(OC(C)=O)cc1`, the inhibition in data set [3] turned out to be 80.8%.

In data set [3], `CCn1c(=O)[nH]c(=O)c2c1nc(Cc1cn3ccsc3n1)n2CC(=O)Nc1ccc(OC)cc1` displayed an inhibition of 4.1%. For `CCn1c(=O)[nH]c(=O)c2c1nc(Cn1ccnc1)n2Cc1ccccc1`, the inhibition in data set [3] was determined as 0%. In data set [3], `CCn1c(=O)[nH]c(=O)c2c1nc(Cc1cn3ccsc3n1)n2CC(=O)c1ccc(F)cc1` had an inhibition of 62.6%. The compound `CCn1c(=O)[nH]c(=O)c2c1nc(Cc1cn3ccsc3n1)n2CC(=O)c1cccc(OC)c1` returned an inhibition in data set [3] of 38.9%.

For `CCn1c(=O)[nH]c(=O)c2c1nc(Cc1cn3ccsc3n1)n2CC(=O)c1ccc(OC)cc1`, the remaining at 0.5 h in data set [1] was determined as 69%; in data set [2] it was 30%. This compound had an inhibition in data set [3] of 91.4%. This compound registered an IC50 in data set [4] of 182 nM. In the case of `CCn1c(=O)[nH]c(=O)c2c1nc(Cc1cn3ccsc3n1)n2CC(=O)c1ccc(Br)cc1`, the inhibition in data set [3] amounted to 47.2%. For the compound `CCn1c(=O)[nH]c(=O)c2c1nc(Cc1cn3ccsc3n1)n2CC(=O)c1ccc(CO)cc1`, the remaining at 0.5 h in data set [1] was found to be 91.5%; in data set [2], 85.2%. The compound also came in with an inhibition in data set [3] of 83%. This compound also returned an IC50 in data set [4] of 277 nM.

Take `CCn1c(=O)[nH]c(=O)c2c1nc(Cc1ccccc1)n2Cc1ccccc1`: the inhibition in data set [3] was found to be 0%.

In turn, `CCn1c(=O)[nH]c(=O)c2c1nc(Cc1cn3ccsc3n1)n2CC(=O)c1ccc(Cl)cc1` returned an inhibition in data set [3] of 66%. In data set [3], `CCn1c(=O)[nH]c(=O)c2c1nc(Cc1cn3ccsc3n1)n2CC(=O)c1ccc(N=[N+]=[N-])cc1` returned an inhibition of 87.9%. On to `CCn1c(=O)[nH]c(=O)c2c1nc(Cc1cn3ccsc3n1)n2Cc1ccccc1`, for which, in data set [3], the inhibition stood at 48.6%. In data set [4], this compound gave an IC50 of 1160 nM.

In data set [3], `CCn1c(=O)[nH]c(=O)c2c1nc(Cc1cn3ccsc3n1)n2CC(=O)c1ccccc1` returned an inhibition of 39.4%.
